Laboratory results from the NIST ThermoML archive (doi:10.1016/j.fluid.2012.08.009).

Conditions: Liquid; for vapor or sublimation pressure: Ebulliometric method (Recirculating still); for Normal boiling temperature: Siwoloboff method

CN1CCCC1=O [N-methylpyrrolidone]
Conditions	Normal boiling temperature [°C]	vapor or sublimation pressure [kPa]
–	202.14	–
380.76 K	–	4.742
388.05 K	–	6.361
400.39 K	–	10.29
411.34 K	–	15.22
420.9 K	–	20.97
432.23 K	–	30.08
441.78 K	–	39.96
451.08 K	–	52.18
457.44 K	–	62.11
475.79 K	–	99.4

CCO[Si](C)(OCC)c1cccc(C)c1 [diethoxy(methyl)(m-tolyl)silane]
Conditions	Normal boiling temperature [°C]	vapor or sublimation pressure [kPa]
–	235.8	–
391.91 K	–	2
400.12 K	–	3
406.47 K	–	4
411.84 K	–	5
416.3 K	–	6
420.23 K	–	7
426.81 K	–	9
432.31 K	–	11
439.13 K	–	14
444.83 K	–	17
449.84 K	–	20
454.26 K	–	23
458.23 K	–	26
461.73 K	–	29
465.1 K	–	32
468.22 K	–	35
471.02 K	–	38
473.69 K	–	41
476.21 K	–	44
478.56 K	–	47
480.85 K	–	50
483.08 K	–	53
485.67 K	–	57
488.08 K	–	61

CCO[Si](C)(OCC)c1ccccc1C [diethoxy(methyl)(o-tolyl)silane]
Conditions	Normal boiling temperature [°C]	vapor or sublimation pressure [kPa]
–	239.83	–
393.45 K	–	2
401.5 K	–	3
407.98 K	–	4
413.33 K	–	5
417.79 K	–	6
421.8 K	–	7
431.54 K	–	10
439.05 K	–	13
445.46 K	–	16
450.67 K	–	19
455.4 K	–	22
459.55 K	–	25
463.3 K	–	28
466.73 K	–	31
469.94 K	–	34
472.92 K	–	37
475.72 K	–	40
478.35 K	–	43
480.89 K	–	46
483.26 K	–	49

CCO[Si](C)(OCC)c1ccc(C)cc1 [diethoxy(methyl)(p-tolyl)silane]
Conditions	Normal boiling temperature [°C]	vapor or sublimation pressure [kPa]
–	239.57	–
394.65 K	–	2
402.86 K	–	3
409.39 K	–	4
414.72 K	–	5
419.19 K	–	6
423.25 K	–	7
429.82 K	–	9
435.35 K	–	11
442.33 K	–	14
448.16 K	–	17
453.16 K	–	20
457.61 K	–	23
461.72 K	–	26
465.36 K	–	29
468.68 K	–	32
471.81 K	–	35
474.73 K	–	38
477.27 K	–	41
479.82 K	–	44
482.24 K	–	47
484.62 K	–	50
486.87 K	–	53
